The subject of one series is E. coli. Description: Antibiotic activity testing (TC50, dilution assay, turbidity). The format is cell-based, E. coli (DH5α). How it is done: The TC50 or MIC procedure for antibiotic sensitivity testing involves an antibiotic dilution assay, which can be performed in microtitre plates. A series of twofold dilutions of each antibiotic are made in the wells, and then all wells are inoculated with a standard amount of the same test organism. After incubation, growth in the presence of the various antibiotics is observed by measuring turbidity.
Bacteria: B. pumilus and E. coli (DH5α)
Bacterial cultures are initiated from the plates for 2 to 3 weeks. After this time period bacteria are streaked out on new plates from the backups stored at −80° C. Due to the lack of resistance of the bacteria, new cultures are not to be initiated from an old plate or any liquid cultures derived from old plates.
Growth medium (GM) (per liter): 10 g Bacto-tryptone, 5 g Bacto-yeast extract, 6 g HEPES (25 mM), 5.4 g NaCl, pH 7.3
Compound stocks 10 or 100 mM in DMSO stored at −20° C.
• 1. Grow B. pumilus from an LB agar plate in a flask (max. 10% volume) up to about 50 ml in growth medium (GM) • 2. Dilute overnight suspension 1:10 in GM • 3. Determine OD600 of diluted bacterial suspension • 4. Dilute bacterial suspension in GM to an OD600 of 0.03-0.04. (6 ml/plate) • 5. Add 200 μl GM to the outer wells (Row A, Row H, Column 1, Column 12) • 6. Add 100 μl GM to each well starting from C2, row 3. • 7. […]
8.3. […] Determine OD600 on plate reader.

Another series deals with white blood cells. The series is described as follows: Immune cell selective uptake (immune selectivity ratio) in blood cell / buffy coat preparations. Conditions: fluorescent compounds, FIG. 1. The format is cell-based. How it is done: Freshly drawn heparinised blood or buffy coat preparations are used for the determination of immune cell partition ratios. Buffy coat preparations are preferred. These may be obtained from donor blood by simple centrifugation of whole blood (4795 g for 10 minutes). Following centrifugation, plasma is collected from the surface, after which immune cells are expressed from the donor bags along with the erythrocytes lying immediately below the leukocyte layer. This ensures high yields and a sufficient population of erythrocytes for partition. 5 ml of the resulting cell suspension are dispensed into T25 culture flasks. Substrates are added to a final concentration between 1 and 10 μM and the suspensions incubated at 37° C., in a 5% CO2 atmosphere. For analysis of uptake kinetics, samples are withdrawn at 0, 2, 5, 10, 30, 60, 90, 180, or 240 min after substrate addition. For screening purposes, samples are taken at 0 and 120 minutes. […]
Uptake of fluorescent compounds is monitored using fluorescence microscopy. Excitation and emission wavelengths depend of the fluorescence label in use. […]
Cell lysates are analysed using a HP 1100 HPLC System (Agilent Technologies, Waldbronn, Germany) with a Kromasil 3.5μ […], 50×2.0 mm column and guard cartridge system (both, Phenomenex, Aschaffenburg, Germany) run at 30° C. […]
Masses are monitored according to the known or expected M/Z ratios. […]

The structures appear in SMILES notation.

On to `CCC1OC(=O)C(C)C(OC2CC(C)(OC)C(O)C(C)O2)C(C)C(OC2OC(C)CC(NC)C2O)C(C)(O)CC(C)CN(C)C(C)C(O)C1(C)O` (centres unmarked) [Compound 96], for which the “TC50 in E. coli” value with E. coli is 28 µM.

For `COc1cc(C)c(/C(=C\C(C)=O)CC(N)C(=O)O)cc1OC` (centres unmarked) [Compound 4], the uptake rate result in the series with white blood cells is recorded as “rapid”.

The values are drawn from patent US8357506B2, “Method of identifying improved conjugates of biologically active compounds” (priority 2002, dated 2013).
